This note sets out measurements from patent US20150246024A1 (priority 2012, published 2015).

One assay concerns S. aureus - MRSA USA300. The assay is described as follows: microbe, parasite or virus in culture. It counts as cell-based.
For a further assay, the system named is S. aureus RN4220 (MSSA). The assay is described as follows: microbe, parasite or virus in culture. It counts as cell-based.
The test system of another assay is E. faecalis - VRE V583. The assay is described as follows: microbe, parasite or virus in culture. It counts as cell-based.
For a further assay, the system named is E. faecium - VRE TX0016. As to the kind of experiment: microbe, parasite or virus in culture. It counts as cell-based.
A further assay has as its system B. anthracis Sterne. The assay is described as follows: microbe, parasite or virus in culture. The format is cell-based.
The target of assay [1] is Recombinant S. aureus LtaSSA expressed in E. coli (Staphylococcus aureus, UniProt Q2G093). The format is cell-based.
In assay [2] the test system is LTA production in S. aureus. The assay is described as follows: Inhibition of LTA synthesis in S. aureus (immunoblot). The note with it: sub-lethal concentrations of compound. Background: A western blot detects proteins with antibodies after separation by electrophoresis.
Assay [3] concerns S. aureus RN4220. The assay is described as follows: Growth of S. aureus culture with sub-lethal compound (OD600). The note with it: 1 μM compound, until control culture OD600 1.0.
Assay [4] concerns S. aureus RN4220. The assay is described as follows: High throughput screen for growth inhibitors, 384-well. It counts as cell-based. The note with it: Staphylococcus aureus, positive control, vs medium alone. The method, then: The antibiotic sensitive strain S. aureus RN4220 was used to screen for small molecule growth inhibitors in a high throughput-screening assay using 384-well microplates. Cation-adjusted Hinton Mueller II broth supplemented with 0.005% Tween-80 was inoculated with a single colony of S. aureus RN4220. Following overnight incubation, the culture was diluted 1:100 in fresh medium and incubation was continued until the bacterial suspension reached an optical density at 600 nm (OD600) of 0.6 corresponding to a bacterial titer of 5×10^8 colony forming units (CFU) per ml. An aliquot of this culture was diluted 1:400 with fresh medium and stored on ice until it could be dispensed in 384-well plates. Small-scale experiments were conducted to determine the Z′-factor (1-[(3SD^−)+(3SD^+)/(Ave^−)−(Ave^+)]) used commonly for quality assessment of raw data sets generated in high-throughput screening. In this formula, (SD^+/−) and (Ave^+/−) represent standard deviation and average of positive and negative controls. […] The OD600 in each well was recorded after 20 hours incubation. […] After 20 hours, the OD600 was measured using a plate reader in absorbance mode. […]
S. aureus lacking the ltaS gene is unable to grow at temperatures […]. […] The quality of the screen was assessed for every assay plate with the Z′-factor, a measure for data variability within the dynamic range of the assay (Zhang et al. 1999). […]

The mark [5] stands for this setting: 37° C., 18-22 hours, OD600, sigmoidal fit, read-out: IC50.

Values after ≈ are worked out from the molar mass of the structure shown. “Also recorded” adds a separate entry of the source. Read-outs that look alike come from different tables or passages of the source. A value given as a limit tells only on which side of the number the result lay.

Chain of Recombinant S. aureus LtaSSA expressed in E. coli (Q2G093 whole entry): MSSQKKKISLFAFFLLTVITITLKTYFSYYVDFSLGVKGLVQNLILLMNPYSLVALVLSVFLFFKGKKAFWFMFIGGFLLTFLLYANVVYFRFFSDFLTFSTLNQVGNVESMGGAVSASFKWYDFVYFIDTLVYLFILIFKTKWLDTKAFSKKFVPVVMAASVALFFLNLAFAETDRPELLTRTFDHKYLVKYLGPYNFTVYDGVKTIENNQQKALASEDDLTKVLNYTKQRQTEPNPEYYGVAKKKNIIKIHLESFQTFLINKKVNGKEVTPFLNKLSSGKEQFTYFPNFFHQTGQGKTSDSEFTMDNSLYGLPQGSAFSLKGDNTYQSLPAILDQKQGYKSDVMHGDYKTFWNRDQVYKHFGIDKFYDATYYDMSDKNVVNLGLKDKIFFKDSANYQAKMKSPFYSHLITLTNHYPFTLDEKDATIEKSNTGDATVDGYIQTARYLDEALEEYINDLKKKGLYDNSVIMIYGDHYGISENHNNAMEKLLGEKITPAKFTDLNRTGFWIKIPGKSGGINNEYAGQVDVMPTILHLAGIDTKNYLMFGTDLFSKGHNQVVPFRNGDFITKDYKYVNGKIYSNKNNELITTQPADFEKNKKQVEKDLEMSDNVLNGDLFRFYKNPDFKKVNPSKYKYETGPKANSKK

As usually defined, the IC50 is the point on the concentration scale where inhibition reaches its midpoint. As for `COc1cccc(-c2nnc(NC(=O)c3ccc(S(=O)(=O)N(Cc4ccccc4)C(C)C)cc3)o2)c1` [4-(N-benzyl-N-isopropylsulfamoyl)-N-(5-(3-methoxyphenyl)-1,3,4-oxadiazol-2-yl)benzamide], the IC50 with S. aureus - MRSA USA300 (Staphylococcus aureus) was 1.3 µM; with S. aureus RN4220 (MSSA) (Staphylococcus aureus, MSSA), 1.2 µM; in the assay with E. faecalis - VRE V583 (Enterococcus faecalis, VRE), 18.5 µM; with E. faecium - VRE TX0016 (Enterococcus faecium, VRE) it was 7.3 µM; in the assay with B. anthracis Sterne (Bacillus anthracis), 1 µM. The MIC against S. aureus - MRSA USA300 (Staphylococcus aureus) was 3.1 µM (≈ 1.57 µg/mL); against S. aureus RN4220 (MSSA) (Staphylococcus aureus, MSSA), 3.1 µM (≈ 1.57 µg/mL); against E. faecalis - VRE V583 (Enterococcus faecalis, VRE), 50 µM (≈ 25.3 µg/mL); with E. faecium - VRE TX0016 (Enterococcus faecium, VRE), 50 µM (≈ 25.3 µg/mL); in the assay on B. anthracis Sterne (Bacillus anthracis), 1.6 µM (≈ 0.811 µg/mL). Besides, the “production of LTA promoted by plasmid encoded LtaSSA” value (“production of LTA promoted” below) in assay [1] is reported as “abrogated”. The “LTA production (immunoblot α-LTA)” value in assay [2] is “affect the production of LTA; also recorded: reduced”. In addition, the “reduced growth of staphylococci” value in the assay on S. aureus RN4220 [3] was determined as 75%.

Turning to `COc1cc(OC)cc(-c2nnc(NC(=O)c3ccc(S(=O)(=O)N(C)c4ccccc4)cc3)o2)c1` [Compound 1650-I01, N-(5-(3,5-dimethoxyphenyl)-1,3,4-oxadiazol-2-yl)-4-(N-methyl-N-henylsulfamoyl)benzamide], the MIC against S. aureus - MRSA USA300 (37° C., 18-22 hours, OD600) is 6.2 µM (≈ 3.07 µg/mL); in the assay on S. aureus RN4220 (MSSA) (37° C., 18-22 hours, OD600) it was 3.1 µM (≈ 1.53 µg/mL); with E. faecalis - VRE V583 (37° C., 18-22 hours, OD600), 100.0 µM (≈ 49.5 µg/mL); against E. faecium - VRE TX0016 (37° C., 18-22 hours, OD600), 100.0 µM (≈ 49.5 µg/mL); in the assay on B. anthracis Sterne (37° C., 18-22 hours, OD600), 3.1 µM (≈ 1.53 µg/mL). The IC50 came out at 1.7 µM with S. aureus - MRSA USA300 (setting [5]); 1.3 µM in the assay with S. aureus RN4220 (MSSA) (setting [5]); 55.6 µM in the assay on E. faecalis - VRE V583 (setting [5]); 14.6 µM with E. faecium - VRE TX0016 (setting [5]); 1.5 µM with B. anthracis Sterne (setting [5]). Also, the “production of LTA promoted” value in assay [1] is given as “abrogated”. Also, in assay [2], the “LTA production (immunoblot α-LTA)” value was “affect the production of LTA; also recorded: reduced”. For the same molecule, in the assay with S. aureus RN4220 [3], the “reduced growth of staphylococci” value is listed as 50%.

For the molecule `CC1CCCCN1S(=O)(=O)c1ccc(C(=O)Nc2nnc(-c3cccs3)o2)cc1` (stereo not shown) [Compound 1650-M01, 4-(2-methylpiperidin-1-ylsulfonyl)-N-(5-(thiophen-2-yl)-1,3,4-oxadiazol-2-yl)benzamide], the MIC in the assay with S. aureus - MRSA USA300 (37° C., 18-22 hours, OD600) stood at 25.0 µM (≈ 10.8 µg/mL); in the assay with S. aureus - MRSA USA300 (Staphylococcus aureus) it was 25 µM (≈ 10.8 µg/mL); in the assay on S. aureus RN4220 (MSSA) (Staphylococcus aureus, MSSA), 25 µM (≈ 10.8 µg/mL); against E. faecalis - VRE V583 (Enterococcus faecalis, VRE), 100 µM (≈ 43.3 µg/mL); in the assay with E. faecium - VRE TX0016 (Enterococcus faecium, VRE), 100 µM (≈ 43.3 µg/mL); against B. anthracis Sterne (Bacillus anthracis), 25 µM (≈ 10.8 µg/mL). The 50% inhibitory concentration (IC50) came out at 8.4 µM with S. aureus - MRSA USA300 (Staphylococcus aureus); 7.1 µM in the assay with S. aureus RN4220 (MSSA) (Staphylococcus aureus, MSSA); 36.7 µM in the assay on E. faecalis - VRE V583 (Enterococcus faecalis, VRE); 19.4 µM in the assay on E. faecium - VRE TX0016 (Enterococcus faecium, VRE); 11.1 µM in the assay on B. anthracis Sterne (Bacillus anthracis). Also, the “production of LTA promoted” value in assay [1] is recorded as “abrogated”.

Turning to `CC(=O)COC(=O)Cc1coc2ccc3ccccc3c12` [Compound 1771-1, 2-oxopropyl 2-(naphtho[2,1-b]furan-1-yl)acetate], in the assay with S. aureus RN4220 (MSSA) (Staphylococcus aureus, MSSA), the IC50 was over 400 µM and the MIC is over 400 µM. In addition, in the assay with B. anthracis Sterne (Bacillus anthracis), 169 µM corresponded to half-maximal inhibition (IC50) and the MIC is over 400 µM.

`CNC(=O)COC(=O)Cc1coc2ccc3ccccc3c12` [Compound 1771-2, 2-(methylamino)-2-oxoethyl 2-(naphtho[2,1-b]furan-1-yl)acetate]: in the assay on S. aureus RN4220 (MSSA) (Staphylococcus aureus, MSSA), the IC50 is over 400 µM and the MIC is over 400 µM. Moreover, in the assay with B. anthracis Sterne (Bacillus anthracis), the half-maximal inhibitory concentration (IC50) is over 400 µM and the MIC was over 400 µM.

As to `CC(NC(=O)COC(=O)Cc1coc2ccc3ccccc3c12)c1ccccc1` (stereo not shown) [Compound 1771-3, 2-oxo-2-(1-phenylethylamino)ethyl 2-(naphtho[2,1-b]furan-1-yl)acetate], the IC50 is over 400 µM in the assay on S. aureus RN4220 (MSSA) (Staphylococcus aureus, MSSA) and over 400 µM in the assay on B. anthracis Sterne (Bacillus anthracis). Also, the MIC against S. aureus RN4220 (MSSA) (Staphylococcus aureus, MSSA) was over 400 µM; against B. anthracis Sterne (Bacillus anthracis) it was over 400 µM.

For the molecule `O=C(COC(=O)Cc1ccccc1)Nc1nnc(-c2ccccc2)o1` [Compound 1771-4, 2-oxo-2-(5-phenyl-1,3,4-oxadiazol-2-ylamino)ethyl 2-phenylacetate], the 50% inhibitory concentration (IC50) came to 242 µM in the assay with S. aureus RN4220 (MSSA) (Staphylococcus aureus, MSSA) and 224 µM in the assay on B. anthracis Sterne (Bacillus anthracis). Further, the MIC was over 400 µM against S. aureus RN4220 (MSSA) (Staphylococcus aureus, MSSA) and over 400 µM in the assay on B. anthracis Sterne (Bacillus anthracis).

Turning to `O=C(COC(=O)Cc1c[nH]c2ccccc12)Nc1nnc(-c2ccccc2)o1` [Compound 1771-5, 2-oxo-2-(5-phenyl-1,3,4-oxadiazol-2-ylamino)ethyl 2-(1H-indol-3-yl)acetate], in the assay with S. aureus RN4220 (MSSA) (Staphylococcus aureus, MSSA), half-maximal inhibition (IC50) required 85.6 µM and the MIC was over 400 µM. In the assay on B. anthracis Sterne (Bacillus anthracis), this molecule showed an IC50 of 88.1 µM and an MIC of 200 µM (≈ 75.3 µg/mL).

In the assay with S. aureus RN4220 (MSSA) (Staphylococcus aureus, MSSA), `Cc1cc2occ(CC(=O)OCC(=O)Nc3nnc(-c4ccccc4)o3)c2cc1C` [Compound 1771-6, 2-oxo-2-(5-phenyl-1,3,4-oxadiazol-2-ylamino)ethyl 2-(5,6-dimethylbenzofuran-3-yl)acetate] showed a concentration for half-maximal inhibition (IC50) of 15.2 µM and an MIC of 50 µM (≈ 20.3 µg/mL). In the assay with B. anthracis Sterne (Bacillus anthracis), inhibition was half-maximal at 14.8 µM (IC50) and the MIC was determined as 25 µM (≈ 10.1 µg/mL).

For the molecule `O=C(COC(=O)Cc1coc2cc3c(cc12)CCC3)Nc1nnc(-c2ccccc2)o1` [Compound 1771-7, 2-oxo-2-(5-phenyl-1,3,4-oxadiazol-2-ylamino)ethyl 2-(6,7-dihydro-5H-indeno[5,6-b]furan-3-yl)acetate], the IC50 in the assay on S. aureus RN4220 (MSSA) (Staphylococcus aureus, MSSA) came out at 27.7 µM; in the assay with B. anthracis Sterne (Bacillus anthracis), 24.1 µM. Also, the MIC in the assay with S. aureus RN4220 (MSSA) (Staphylococcus aureus, MSSA) amounted to 50 µM (≈ 20.9 µg/mL); in the assay with B. anthracis Sterne (Bacillus anthracis), 50 µM (≈ 20.9 µg/mL).

As a reminder, the inhibition is the change of the read-out against control, counted positive when it falls. Molecule `O=C(N[C@H](CO)[C@H](O)c1ccc([N+](=O)[O-])cc1)C(Cl)Cl` [chloramphenicol] had an inhibition at 80 µM in the assay with S. aureus RN4220 [4] of 100%.
